Values quoted from earlier work in publication PMC8453635, “Piperidine Azasugars Bearing Lipophilic Chains: Stereoselective Synthesis and Biological Activity as Inhibitors of Glucocerebrosidase (GCase)” (The Journal of Organic Chemistry, 2021).
Residue numbers refer to the chain shown, from its start. Read-outs that look alike come from different tables or passages of the source.

Legend:
[1] = test system: N370S mutant enzyme in fibroblasts; details: cited from earlier work
[2] = test system: L444P variant; design: method as in PMID 12434014; details: cited from earlier work
[3] = molecular target: lysosomal GCase; details: toward GCase; cited from earlier work
[4] = molecular target: T1, GCase (Homo sapiens, UniProt P04062); details: cited from earlier work; for IC50: human leukocytes, same experimental protocol and substrate concentration
T1 construct: screened toward GCase in leukocytes isolated from healthy donors (controls); from tissue; host or cells: leukocytes isolated from healthy donors, disrupted by sonication
T1 sequence (P04062 40-536): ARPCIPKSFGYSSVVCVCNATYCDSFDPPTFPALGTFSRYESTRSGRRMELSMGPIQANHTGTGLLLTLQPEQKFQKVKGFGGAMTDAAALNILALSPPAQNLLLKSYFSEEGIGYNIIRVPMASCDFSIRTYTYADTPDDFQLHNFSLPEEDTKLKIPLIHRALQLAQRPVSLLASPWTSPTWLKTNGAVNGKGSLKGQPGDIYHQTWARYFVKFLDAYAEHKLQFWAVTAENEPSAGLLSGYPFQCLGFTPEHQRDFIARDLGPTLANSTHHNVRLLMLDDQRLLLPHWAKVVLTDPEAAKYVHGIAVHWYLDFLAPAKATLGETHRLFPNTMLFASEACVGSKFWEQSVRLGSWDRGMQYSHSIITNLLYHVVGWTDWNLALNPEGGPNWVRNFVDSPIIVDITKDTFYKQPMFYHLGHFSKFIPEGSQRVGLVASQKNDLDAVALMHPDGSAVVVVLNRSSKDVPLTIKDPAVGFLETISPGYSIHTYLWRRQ

[5] = test system: wild-type fibroblasts; design: method as in PMID 32200326; details: cited from earlier work
[6] = molecular target: T2, GCase in fibroblasts bearing the N370S/RecNcil mutation (Homo sapiens, UniProt P04062, A495P/L483P/N409S); design: method as in PMID 30996807, PMID 32200326; details: 100 μM; cited from earlier work
T2 construct: fibroblasts derived from Gaucher patients bearing the N370S/RecNcil and L444P/L444P mutations; host or cells: fibroblasts from Gaucher disease patients, N370S/RecNcil
T2 sequence (P04062 40-536 N409S): T1 sequence (P04062 40-536) with N370S

[7] = molecular target: T3, GCase in fibroblasts bearing the L444P/L444P mutations (Homo sapiens, UniProt P04062, L483P); design: method as in PMID 30996807, PMID 32200326; details: homozygous L444P mutation, 100 μM; cited from earlier work
T3 construct: fibroblasts derived from Gaucher patients bearing the N370S/RecNcil and L444P/L444P mutations; host or cells: fibroblasts from Gaucher disease patients, L444P/L444P
T3 sequence (P04062 40-536 L483P): T1 sequence (P04062 40-536) with L444P

In the case of `CCCCCCCCCN1C[C@H](O)[C@@H](O)[C@H](O)[C@H]1CO` [compound 5, N-nonyl-DNJ], the “increase in the activity of the N370S mutant enzyme” value ([1]; fibroblasts, 10 μM concentration) is given as “twofold increase” and the “enhancement of intracellular activity of the L444P variant” value [2] is given as “did not enhance”.
In the case of `CCCCCCCCC[C@H]1NC[C@@H](O)[C@H](O)[C@H]1O` [compound 7, α-1-C-nonyl-DIX], the IC50 [3] is given as 0.0068 µM and the enzyme activity increase ([1]; N370S mutated fibroblasts at 10 nM) is given as 1.8 fold.
For `CCCCCCCCN1C[C@@H](O)C(O)[C@H](O)C1` [compound 9], the “GCase inhibition [%]” value ([4]; human leukocytes extracts incubated with azasugars (1 mM), previously reported compounds) is listed as 98%, the IC50 [4] is listed as 30 ± 1 µM and the “PC activity (enzyme activity enhancement)” value ([5]; 50 μM) is listed as 1.5 fold. For the same compound, the activity increase ([1]; N370S-mutated fibroblasts at 100 μM) was 1.25 fold.
In the case of `CCCCCCCC[C@@H]1NC[C@@H](O)[C@@H](O)[C@@H]1O` [compound 11], the IC50 ([4]; ref 16 and 17) is given as 93.5 ± 5.3 µM.
For `CCCCCCCC[C@H]1NC[C@@H](O)[C@@H](O)[C@@H]1O` [compound 12], the IC50 ([4]; ref 16 and 17) is listed as 29.3 ± 1.8 µM, the “PC activity (enzyme activity enhancement)” value ([5]; 100 μM) is listed as 1.4 fold and the enzyme recovery [6] is listed as 1.9 fold. For the same compound, the enzyme recovery [7] was 1.80 fold.
